# Legend:
# [1] = target: T1, microtubular protein (tubulin) from pig brains (Sus scrofa, UniProt P02550+P02554); assay: Inhibition of tubulin polymerization (turbidimetry at 340 nm); format: biochemical; details: pig brain microtubular protein 1 mg/ml, 0.25 mmol GTP, 37° C.
# T1 construct: microtubular protein was purified from pig brains via cydic assembling/disassembling; from tissue; host or cells: pig brain
# Procedure: The in-vitro testing of the tubulin polymerization influence was performed as follows:
# The buffer system used had the following composition: 20 mmol of PIPES (1,4-piperazine-diethane-sulfonic acid, pKa 6.8), 80 mmol of NaCl, 0.5 mmol of MgCl2, 1 mmol of EGTA (ethylene glycol-bis-(2-aminoethylene)-tetraacetic acid).
# For active ingredient testing, protein concentrations of 1 mg/ml (about 10^−5 mmol of tubulin) were used. The determination of protein was carried out according to the Lowry Method (Lowry et al. J. Biol. Chem. 1951, 193, 265-75) with bovine serum albumin as a standard. The assembling of microtubuli was carried out in the presence of 0.25 mmol of GTP and heating the samples to 37° C.
# The microtubulus formation was examined by means of turbidimetry at a wavelength of 340 nm.
# Testing of the active ingredients was carried out by their addition at the beginning of the assembling or in the state of equilibrium. Deviations of turbidity curves from the control characterize its activity. To monitor action and to evaluate the measured turbidity values, a transmission electron microscopic study (CEM 902 A, Zeiss/Oberkochen) of the assemblates was always performed after negative staining with 1% aqueous uranyl acetate.
# [2] = system: HCT116 human colon tumor cells; assay: Inhibition of cell proliferation (crystal violet), HCT116; format: cell-based; details: HCT116, 4 days incubation
# Procedure: (§1) Cell cultures of the following cell lines were prepared in 96-well microtiter plates: • 1. MaTu/ADR multidrug-resistant human breast tumor cells (Epo GmbH Berlin), 5000 cells/well. • 2. HCT116 human colon tumor cells (ATCC CCL-247), 3000 cells/well. • 3. NCl-H460 human non-small-cell lung cancer cells (ATCC HTB-177), 3000 cells/well. • 4. DU145 human prostate tumor cells (ATCC HTB-81), 5000 cells/well. • 5. HMVEC human primary dermal microvascular endothelial cells, 7500 cells/well.
# (§2) After 24 hours of incubation in a cell culture incubator at 37° C., the cells of a microtiter plate were stained with crystal violet (reference plate), while the cells in the test plates were incubated for 4 days with the test substances in the concentrations […], as well as with the DMSO solvent by itself (solvent control). The cell proliferation was determined by staining cells with crystal violet. The extinction of the crystal violet was determined by photometry at 595 nm. The percentage of the change in the cell number in the test plates was determined after the extinction values were normalized to the reference plate (0%) and to the solvent control (100%). The semi-maximal inhibition of the cell growth (IC50) was determined as the substance concentration, in which 50% of the cell number of the solvent controls were present.
# [3] = system: DU145 human prostate tumor cells; assay: Inhibition of cell proliferation (crystal violet), DU145; format: cell-based; details: DU145, 4 days incubation
# Procedure: as §1, §2
# [4] = system: HMVEC human primary dermal microvascular endothelial cells; assay: Inhibition of cell proliferation (crystal violet), HMVEC; format: cell-based; details: 4 days incubation
# Procedure: as §1, §2
# [5] = system: NCl-H460 human non-small-cell lung cancer cells; assay: Inhibition of cell proliferation (crystal violet), NCl-H460; format: cell-based; details: NCl-H460, 4 days incubation
# Procedure: as §1, §2
# [6] = system: MaTu/ADR multidrug-resistant human breast tumor cells; assay: Inhibition of cell proliferation (crystal violet), MaTu/ADR; format: cell-based; details: 4 days incubation
# Procedure: as §1, §2
# T1 sequence (P02550 whole entry): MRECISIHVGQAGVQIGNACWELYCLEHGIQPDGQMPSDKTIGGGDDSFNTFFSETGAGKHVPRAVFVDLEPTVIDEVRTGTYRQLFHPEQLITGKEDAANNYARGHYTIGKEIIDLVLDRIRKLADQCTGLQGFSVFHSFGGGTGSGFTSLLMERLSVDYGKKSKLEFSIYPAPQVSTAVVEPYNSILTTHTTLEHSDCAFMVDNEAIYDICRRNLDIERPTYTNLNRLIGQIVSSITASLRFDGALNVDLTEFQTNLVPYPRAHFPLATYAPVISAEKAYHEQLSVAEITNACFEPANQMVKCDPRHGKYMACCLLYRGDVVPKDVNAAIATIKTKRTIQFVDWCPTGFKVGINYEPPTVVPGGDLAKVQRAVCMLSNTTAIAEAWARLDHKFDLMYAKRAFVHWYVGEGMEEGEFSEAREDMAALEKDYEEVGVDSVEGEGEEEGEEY
# T1 sequence (P02554 whole entry): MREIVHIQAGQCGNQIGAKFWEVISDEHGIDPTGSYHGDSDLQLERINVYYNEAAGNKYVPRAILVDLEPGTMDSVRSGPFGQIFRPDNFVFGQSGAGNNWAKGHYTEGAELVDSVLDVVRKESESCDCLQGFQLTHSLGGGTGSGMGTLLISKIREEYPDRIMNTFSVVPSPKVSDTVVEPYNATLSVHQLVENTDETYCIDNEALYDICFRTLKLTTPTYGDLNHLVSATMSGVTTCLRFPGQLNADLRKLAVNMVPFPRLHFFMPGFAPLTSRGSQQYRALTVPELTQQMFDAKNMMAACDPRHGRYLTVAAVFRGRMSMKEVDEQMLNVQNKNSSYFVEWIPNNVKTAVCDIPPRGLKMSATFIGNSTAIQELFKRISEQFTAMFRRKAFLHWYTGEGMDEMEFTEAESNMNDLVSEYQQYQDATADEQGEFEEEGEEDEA
IC50 [2] [nM],IC50 [3] [nM],IC50 [5] [nM],IC50 [6] [nM],Compound,IC50 [1] [nM],"IC50 ([2]; Homo sapiens, HCT-116, 96 h) [nM]","IC50 ([3]; Homo sapiens, DU-145, 96 h) [nM]","IC50 ([4]; Homo sapiens, 96 h) [nM]","IC50 ([5]; Homo sapiens, 96 h) [nM]","IC50 ([6]; Homo sapiens, 96 h) [nM]",IC50 [4] [nM]
–,–,–,–,"CC[C@]12CC[C@@H]3c4cc(OC)c(OS(N)(=O)=O)cc4CC[C@H]3[C@@H]1CC[C@@H]2O [(1), 17β-Hydroxy-2-methoxy-18a-homoestra-1,3,5(10)-trien-3-yl sulfamate]",500,< 100,150,< 100,< 100,< 100,–
–,–,–,–,"CC[C@@]12CCC[C@H]1[C@@H]1CCc3cc(OS(N)(=O)=O)c(OC)cc3[C@H]1CC2 [(4), 2-Methoxy-18a-homoestra-1,3,5(10)-trien-3-yl sulfamate]",1800,600,600,600,500,450,–
1100,1900,1800,200,"COc1cc2c(cc1O)CC[C@@H]1[C@@H]2CC[C@]2(C)[C@@H](O)CC[C@@H]12 [2-Methoxyestradiol, reference compound]",2700,–,–,–,–,–,2200
400,900,300,100,"CCOc1cc2c(cc1OS(N)(=O)=O)CC[C@@H]1[C@@H]2CC[C@]2(CC)[C@@H](O)CC[C@@H]12 [(2), 2-Ethoxy-17β-hydroxy-18a-homoestra-1,3,5(10)trien-3-yl sulfamate]",–,–,–,–,–,–,500
< 100,190,130,< 100,"CC[C@]12CC[C@@H]3c4cc(OC)c(OS(N)(=O)=O)cc4CC[C@H]3[C@@H]1CC[C@@H]2OC [(5), 2,17β-Dimethoxy-18a-homoestra-1,3,5(10)-trien-3-yl Sulfamate]",–,–,–,–,–,–,< 100
180,180,180,100,"CCc1cc2c(cc1OS(N)(=O)=O)CC[C@@H]1[C@@H]2CC[C@]2(CC)[C@@H](OS(N)(=O)=O)CC[C@@H]12 [(6), 2-Ethyl-18a-homoestra-1,3,5(10)-triene-3,17β-diyl Sulfamate]",–,–,–,–,–,–,< 100
–,–,–,–,"CC(=O)O[C@H]1C(=O)[C@@]2(C)[C@H]([C@H](OC(=O)c3ccccc3)[C@]3(O)C[C@H](OC(=O)[C@H](O)[C@@H](NC(=O)c4ccccc4)c4ccccc4)C(C)=C1C3(C)C)[C@]1(OC(C)=O)CO[C@@H]1C[C@@H]2O [Taxol, reference compound]",–,4,4,4,4,400,–

# Source: patent US20060211670A1, “Antitumoral18a-homoestra-1,3,5(10)-trien-3yl 2-substituted sulfamates” (priority 2003, published 2006)
